Kd data for 13 compounds are collected here from US11866518B2, “Bicyclic peptide ligands specific for TSLP” (BicycleTx Limited, priority 2020, dated 2024).

*1 amine or outer side, *2 acyl side, *3 side chain or, on linkers, in order; H or OH if unused. Where a SMILES comes first, the peptide text is derived from it. Bridges are numbered along the chain shown (N, C = ends). TATA = O=C(CC[*:1])N1CN(C(=O)CC[*:2])CN(C(=O)CC[*:3])C1

Broadly, the Kd is the equilibrium constant for the complex coming apart.

The target in the assay is TSLP (Homo sapiens, UniProt Q969D9). As to the kind of experiment: Human TSLP Surface Plasmon Resonance (SPR) binding assay. The arrangement: The resulting construct spCD33-6×HN-TEV-hTSLP(29-159)-Avi; 6xHN tag with TEV site (N, cleaved yes); made in house; host or cells: Expi293F cells. Conditions: biotinylated human TSLP immobilized on streptavidin chip; 20° C.; steady-state or kinetic 1:1 fit; read-out: hTSLP SPR Kd.
Chain of TSLP (Q969D9 29-159): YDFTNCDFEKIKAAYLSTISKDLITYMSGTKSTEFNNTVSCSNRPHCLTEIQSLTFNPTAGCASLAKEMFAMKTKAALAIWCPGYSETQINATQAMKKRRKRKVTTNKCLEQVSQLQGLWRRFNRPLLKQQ
As for `CC(C)C[C@@H]1NC(=O)[C@H](Cc2c[nH]c3ccccc23)NC(=O)[C@H](Cc2c[nH]c3ccccc23)NC(=O)[C@H](CO)NC(=O)[C@H](CO)NC(=O)[C@@H]2CSCCC(=O)N3CN(CN(C3)C(=O)CCSC[C@H](NC(=O)[C@H](CCC(N)=O)NC(=O)[C@H](Cc3c[nH]cn3)NC(=O)[C@@H](NC(=O)[C@H](CC(N)=O)NC(=O)[C@@H](NC(=O)[C@@H](N)CCCNC(=N)N)C(C)C)[C@@H](C)O)C(=O)N[C@@H](CCCNC(=N)N)C(=O)N[C@@H](CC(=O)O)C(=O)N[C@@H](CC(C)C)C(=O)N[C@@H](CC(=O)O)C(=O)N3CCC[C@H]3C(=O)N[C@@H](Cc3c[nH]c4ccccc34)C(=O)N[C@@H]([C@@H](C)O)C(=O)N2)C(=O)CCSC[C@@H](C(=O)N[C@@H](C)C(N)=O)NC1=O` [Example 190, RVNTHQ-(SEQ ID NO: 122)-A], the equilibrium dissociation constant (Kd) amounted to 81 nM.
On to `CC(C)C[C@@H]1NC(=O)[C@H](Cc2c[nH]c3ccccc23)NC(=O)[C@@H]2CSCCC(=O)N3CN(CN(C3)C(=O)CCSC[C@@H](C(=O)N[C@@H](C)C(N)=O)NC(=O)[C@@H]3CCCN3C1=O)C(=O)CCSC[C@H](NC(=O)[C@H](C)N)C(=O)N[C@@H](CC(=O)O)C(=O)N[C@@H](Cc1c[nH]c3ccccc13)C(=O)N[C@@H](CCC(N)=O)C(=O)N[C@@H](Cc1c[nH]c3ccccc13)C(=O)N[C@@H](CO)C(=O)N[C@@H](Cc1ccc(O)cc1)C(=O)N[C@@H](CC(=O)O)C(=O)N2` [Example 196, A-(SEQ ID NO: 141)-A] (H-ACDWQWSYDCWLPCA-NH2; linker 2-10-14 via TATA; N-terminus assumed), for which the dissociation constant Kd worked out at 6100 nM.
As to `CC(C)C[C@@H]1NC(=O)[C@H](Cc2c[nH]c3ccccc23)NC(=O)[C@@H]2CSCCC(=O)N3CN(CN(C3)C(=O)CCSC[C@@H](C(=O)N[C@@H](C)C(N)=O)NC(=O)[C@@H]3CCCN3C1=O)C(=O)CCSC[C@H](NC(=O)[C@H](C)N)C(=O)N[C@@H](CC(=O)O)C(=O)N[C@@H](Cc1c[nH]c3ccccc13)C(=O)N[C@@H](C(C)C)C(=O)N[C@@H](Cc1c[nH]c3ccccc13)C(=O)N[C@@H](CCC(=O)O)C(=O)N[C@@H](Cc1ccc(O)cc1)C(=O)N[C@@H](CC(=O)O)C(=O)N2` [Example 197, A-(SEQ ID NO: 142)-A] (H-ACDWVWEYDCWLPCA-NH2; linker 2-10-14 via TATA; N-terminus and C-terminus assumed), the Kd was 460 nM.
Take `CC(C)C[C@@H]1NC(=O)[C@H](Cc2c[nH]c3ccccc23)NC(=O)[C@@H]2CSCCC(=O)N3CN(CN(C3)C(=O)CCSC[C@H](NC(=O)CNC(=O)[C@H](CC(=O)O)NC(=O)[C@H](C)N)C(=O)N[C@@H](CCC(=O)O)C(=O)N[C@@H](Cc3c[nH]c4ccccc34)C(=O)N[C@@H](CC(N)=O)C(=O)N[C@@H](Cc3c[nH]c4ccccc34)C(=O)N[C@@H](C)C(=O)N[C@@H](Cc3ccc(O)cc3)C(=O)N[C@@H](CC(=O)O)C(=O)N2)C(=O)CCSC[C@@H](C(=O)N[C@@H](C)C(N)=O)NC(=O)CNC1=O` [Example 201, ADG-(SEQ ID NO: 146)-A] (H-ADGCEWNWAYDCWLGCA-NH2; linker 4-12-16 via TATA; N-terminus and C-terminus assumed): the Kd turned out to be 170 nM.
Next, `CSCC[C@@H]1NC(=O)[C@H](Cc2c[nH]c3ccccc23)NC(=O)[C@H](CCCCN)NC(=O)[C@@H](NC(=O)[C@@H](NC(=O)[C@H](CCC(=O)O)NC(=O)[C@H](C)N)[C@@H](C)O)CSCCC(=O)N2CN3CN(C2)C(=O)CCSC[C@H](NC(=O)[C@H](CC(=O)O)NC(=O)[C@H](Cc2ccc(O)cc2)NC(=O)[C@H](CCC(=O)O)NC(=O)[C@H](Cc2c[nH]c4ccccc24)NC1=O)C(=O)N[C@@H](Cc1c[nH]c2ccccc12)C(=O)N[C@@H](CC(C)C)C(=O)N[C@@H](CO)C(=O)N[C@H](C(=O)N[C@@H](C)C(N)=O)CSCCC3=O` [Example 204, AET-(SEQ ID NO: 149)-A] (H-AETCKWMWEYDCWLSCA-NH2; linker 4-12-16 via TATA; N-terminus assumed): 100 nM.
Next, `CC[C@H](C)[C@H](NC(=O)[C@@H]1CCCN1C(=O)[C@H](C)NC(=O)[C@@H]1CSCCC(=O)N2CN3CN(C2)C(=O)CCSC[C@H](NC(=O)[C@H](CC(=O)O)NC(=O)[C@H](Cc2ccc(O)cc2)NC(=O)[C@H]([C@@H](C)O)NC(=O)[C@H](Cc2c[nH]c4ccccc24)NC(=O)[C@H](CC(N)=O)NC(=O)[C@H](Cc2c[nH]c4ccccc24)NC(=O)[C@H](CC(=O)O)NC(=O)[C@@H](NC(=O)[C@H](C)N)CSCCC3=O)C(=O)N[C@@H](Cc2c[nH]c3ccccc23)C(=O)N[C@@H](CC(C)C)C(=O)N[C@@H](CC(=O)O)C(=O)N1)C(N)=O` [Example 206, A-(SEQ ID NO: 151)-API] (H-ACDWNWTYDCWLDCAPI-NH2; linker 2-10-14 via TATA; N-terminus and C-terminus assumed): 430 nM.
Regarding `CC(C)C[C@@H]1NC(=O)[C@H](Cc2c[nH]c3ccccc23)NC(=O)[C@@H]2CSCCC(=O)N3CN(CN(C3)C(=O)CCSC[C@@H](C(=O)N[C@@H](Cc3ccccc3)C(=O)N[C@@H](C)C(=O)N[C@@H](CCC(=O)O)C(N)=O)NC(=O)[C@@H]3CCCN3C1=O)C(=O)CCSC[C@H](NC(=O)[C@H](C)N)C(=O)N[C@@H](CC(=O)O)C(=O)N[C@@H](Cc1c[nH]c3ccccc13)C(=O)N[C@@H](CC(=O)O)C(=O)N[C@@H](Cc1c[nH]c3ccccc13)C(=O)N[C@@H](CC(=O)O)C(=O)N[C@@H](Cc1ccc(O)cc1)C(=O)N[C@@H](CC(=O)O)C(=O)N2` [Example 208, A-(SEQ ID NO: 153)-FAE] (H-ACDWDWDYDCWLPCFAE-NH2; linker 2-10-14 via TATA; N-terminus assumed), the Kd turned out to be 340 nM.
Next, `CC(C)C[C@@H]1NC(=O)[C@H](Cc2c[nH]c3ccccc23)NC(=O)[C@@H]2CSCCC(=O)N3CN(CN(C3)C(=O)CCSC[C@H](NC(=O)[C@H](CCC(=O)O)NC(=O)[C@H](Cc3c[nH]cn3)NC(=O)[C@H](Cc3c[nH]cn3)NC(=O)[C@H](CCC(N)=O)NC(=O)[C@H](CCC(=O)O)NC(=O)[C@@H](N)CC(=O)O)C(=O)N[C@@H](CC(=O)O)C(=O)N[C@@H](Cc3c[nH]c4ccccc34)C(=O)N[C@@H](Cc3c[nH]cn3)C(=O)N[C@@H](Cc3c[nH]c4ccccc34)C(=O)N[C@@H](CCC(=O)O)C(=O)N[C@@H](Cc3ccc(O)cc3)C(=O)N[C@@H](CC(=O)O)C(=O)N2)C(=O)CCSC[C@@H](C(=O)N[C@@H](C)C(N)=O)NC(=O)[C@H](CO)NC1=O` [Example 209, DEQHHE-(SEQ ID NO: 144)-A]: 910 nM; `CC(C)C[C@@H]1NC(=O)[C@H](Cc2c[nH]c3ccccc23)NC(=O)[C@@H]2CSCCC(=O)N3CN(CN(C3)C(=O)CCSC[C@H](NC(=O)[C@@H]3CCCN3C(=O)[C@@H]3CCCN3C(=O)[C@H](CCC(=O)O)NC(=O)[C@@H](NC(=O)[C@@H]3CCCN3C(=O)[C@@H](N)CO)[C@@H](C)O)C(=O)N[C@@H](CC(=O)O)C(=O)N[C@@H](Cc3c[nH]c4ccccc34)C(=O)N[C@@H](Cc3c[nH]cn3)C(=O)N[C@@H](Cc3c[nH]c4ccccc34)C(=O)N[C@@H](CCC(=O)O)C(=O)N[C@@H](Cc3ccc(O)cc3)C(=O)N[C@@H](CC(=O)O)C(=O)N2)C(=O)CCSC[C@@H](C(N)=O)NC(=O)[C@H](CO)NC1=O` [Example 215, SPTEPP-(SEQ ID NO: 144)]: 240 nM; `CC(C)C[C@@H]1NC(=O)[C@H](Cc2c[nH]c3ccccc23)NC(=O)[C@@H]2CSCCC(=O)N3CN(CN(C3)C(=O)CCSC[C@H](NC(=O)[C@H](CCC(=O)O)NC(=O)[C@H](CO)NC(=O)[C@@H]3CCCN3C(=O)[C@H](CO)NC(=O)[C@H](CCCNC(=N)N)NC(=O)[C@@H](N)CC(N)=O)C(=O)N[C@@H](CC(=O)O)C(=O)N[C@@H](Cc3c[nH]c4ccccc34)C(=O)N[C@@H](Cc3c[nH]cn3)C(=O)N[C@@H](Cc3c[nH]c4ccccc34)C(=O)N[C@@H](CCC(=O)O)C(=O)N[C@@H](Cc3ccc(O)cc3)C(=O)N[C@@H](CC(=O)O)C(=O)N2)C(=O)CCSC[C@@H](C(N)=O)NC(=O)[C@H](CO)NC1=O` [Example 217, NRSPSE-(SEQ ID NO: 144)]: 860 nM.
Turning to `CC(=O)N[C@H]1CSCCC(=O)N2CN3CN(C2)C(=O)CCSC[C@H](NC(=O)[C@H](CC(=O)O)NC(=O)[C@H](Cc2ccc(O)cc2)NC(=O)[C@H](CCC(=O)O)NC(=O)[C@H](Cc2c[nH]c4ccccc24)NC(=O)[C@H](Cc2c[nH]cn2)NC(=O)[C@H](Cc2c[nH]c4ccccc24)NC(=O)[C@H](CC(=O)O)NC1=O)C(=O)N[C@@H](Cc1c[nH]c2ccccc12)C(=O)N[C@@H](CC(C)C)C(=O)N[C@@H](CO)C(=O)N[C@H](C(N)=O)CSCCC3=O` [Example 218, Ac-(SEQ ID NO: 144)], the dissociation constant Kd came out at 2000 nM.
Next, `CC(C)C[C@@H]1NC(=O)[C@H](Cc2c[nH]c3ccccc23)NC(=O)[C@@H]2CSCCC(=O)N3CN(CN(C3)C(=O)CCSC[C@H](NC(=O)[C@H](CC(=O)O)NC(=O)[C@H](CC(N)=O)NC(=O)[C@H](C)N)C(=O)N[C@@H](C(C)C)C(=O)N[C@@H](Cc3c[nH]c4ccccc34)C(=O)N[C@@H](Cc3c[nH]cn3)C(=O)N[C@@H](Cc3c[nH]c4ccccc34)C(=O)N[C@@H](CCC(=O)O)C(=O)N[C@@H](Cc3ccc(O)cc3)C(=O)N[C@@H](CC(=O)O)C(=O)N2)C(=O)CCSC[C@@H](C(=O)N[C@@H](C)C(N)=O)NC(=O)[C@H](CC(=O)O)NC1=O` [Example 220, AND-(SEQ ID NO: 154)-A] (H-ANDCVWHWEYDCWLDCA-NH2; linker 4-12-16 via TATA; N-terminus and C-terminus assumed): 340 nM; `CSCC[C@H](NC(=O)[C@H](CC(=O)O)NC(=O)CNC(=O)[C@@H]1CSCCC(=O)N2CN3CN(C2)C(=O)CCSC[C@H](N)C(=O)N[C@@H](CC(=O)O)C(=O)N[C@@H](Cc2c[nH]c4ccccc24)C(=O)N[C@@H](Cc2c[nH]cn2)C(=O)N[C@@H](Cc2c[nH]c4ccccc24)C(=O)N[C@@H](CCC(=O)O)C(=O)N[C@@H](Cc2ccc(O)cc2)C(=O)N[C@@H](CC(=O)O)C(=O)N[C@@H](CSCCC3=O)C(=O)N[C@@H](Cc2c[nH]c3ccccc23)C(=O)N[C@@H](CC(C)C)C(=O)N[C@@H](CO)C(=O)N1)C(=O)N[C@@H](CO)C(=O)N[C@H](C(=O)N[C@@H](CO)C(N)=O)C(C)C` [Example 222, (SEQ ID NO: 144)-GDMSVS]: 450 nM.
